How the values were obtained:
IKZF1 = biological target: T1, IKZF1 (Homo sapiens, UniProt Q13422+Q96SW2); experiment: Western-blot assay of substrate protein degradation in hPBMCs, IKZF1; format: cell-based; details: 24 hours of compound treatment, 50 nM and 500 nM tested (concentration behind the class not stated)
T1 construct: endogenous in cells; host or cells: hPBMCs (Milecell Biotechnologies)

WEE1 = biological target: T2, WEE1 (Homo sapiens, UniProt P30291+Q96SW2); experiment: Western-blot assay of substrate protein degradation in hPBMCs, WEE1; format: cell-based; details: 24 hours of compound treatment, 50 nM and 500 nM tested (concentration behind the class not stated)
T2 construct: endogenous in cells; host or cells: hPBMCs (Milecell Biotechnologies)

IKZF2 = biological target: T3, IKZF2 (Homo sapiens, UniProt Q96SW2+Q9UKS7); experiment: Western-blot assay of substrate protein degradation in hPBMCs, IKZF2; format: cell-based; details: 24 hours of compound treatment, 50 nM and 500 nM tested (concentration behind the class not stated)
T3 construct: endogenous in cells; host or cells: hPBMCs (Milecell Biotechnologies)

GSPT1 = biological target: T4, GSPT1 (Homo sapiens, UniProt P15170+Q96SW2); experiment: Western-blot assay of substrate protein degradation in hPBMCs, GSPT1; format: cell-based; details: 24 hours of compound treatment, 50 nM and 500 nM tested (concentration behind the class not stated)
T4 construct: endogenous in cells; host or cells: hPBMCs (Milecell Biotechnologies)

CK1α = biological target: T5, CK1α (Homo sapiens, UniProt P48729+Q96SW2); experiment: Western-blot assay of substrate protein degradation in hPBMCs, CK1α; format: cell-based; details: 24 hours of compound treatment, 50 nM and 500 nM tested (concentration behind the class not stated)
T5 construct: endogenous in cells; host or cells: hPBMCs (Milecell Biotechnologies)

[1] = biological target: T6, human Cereblon WT GST-tagged protein (Homo sapiens, UniProt Q96SW2); experiment: CRBN-binding affinity by HTRF (CEREBLON BINDING kit); details: HTRF inhibitory activity, CEREBLON BINDING kit; read-out: HTRF IC50
T6 construct: purchased CISBIO 64BDCRBNPEH

IKZF3 = biological target: T7, IKZF3 (Homo sapiens, UniProt Q96SW2+Q9UKT9); experiment: Western-blot assay of substrate protein degradation in hPBMCs, IKZF3; format: cell-based; details: 24 hours of compound treatment, 50 nM and 500 nM tested (concentration behind the class not stated)
T7 construct: endogenous in cells; host or cells: hPBMCs (Milecell Biotechnologies)
T7 sequence (Q9UKT9 whole entry): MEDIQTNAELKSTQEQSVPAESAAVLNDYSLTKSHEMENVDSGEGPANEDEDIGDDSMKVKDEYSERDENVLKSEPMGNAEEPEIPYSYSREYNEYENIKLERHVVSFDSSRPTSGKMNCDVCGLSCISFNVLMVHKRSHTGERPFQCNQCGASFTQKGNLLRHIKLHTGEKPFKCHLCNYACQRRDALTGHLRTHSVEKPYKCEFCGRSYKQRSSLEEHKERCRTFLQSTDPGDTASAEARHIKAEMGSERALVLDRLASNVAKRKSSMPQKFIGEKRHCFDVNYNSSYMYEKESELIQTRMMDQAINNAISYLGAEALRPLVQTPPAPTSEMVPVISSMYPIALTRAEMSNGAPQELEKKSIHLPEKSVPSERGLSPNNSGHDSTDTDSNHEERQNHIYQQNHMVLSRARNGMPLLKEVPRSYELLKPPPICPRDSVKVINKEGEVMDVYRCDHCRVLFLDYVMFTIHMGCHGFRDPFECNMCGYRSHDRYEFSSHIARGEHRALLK
T7 sequence (Q96SW2 whole entry): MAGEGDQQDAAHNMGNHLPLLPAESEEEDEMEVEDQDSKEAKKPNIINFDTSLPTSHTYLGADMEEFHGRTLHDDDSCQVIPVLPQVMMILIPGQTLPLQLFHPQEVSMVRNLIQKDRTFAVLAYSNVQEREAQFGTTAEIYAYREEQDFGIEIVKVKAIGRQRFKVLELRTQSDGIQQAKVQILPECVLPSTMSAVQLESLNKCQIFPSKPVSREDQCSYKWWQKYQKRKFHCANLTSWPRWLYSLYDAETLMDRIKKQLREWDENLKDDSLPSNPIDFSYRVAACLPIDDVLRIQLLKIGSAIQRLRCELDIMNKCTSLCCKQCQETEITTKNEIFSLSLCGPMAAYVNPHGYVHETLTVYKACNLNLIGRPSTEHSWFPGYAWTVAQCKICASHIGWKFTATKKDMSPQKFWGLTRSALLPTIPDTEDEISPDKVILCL
T7 sequence (Q16531 whole entry partner): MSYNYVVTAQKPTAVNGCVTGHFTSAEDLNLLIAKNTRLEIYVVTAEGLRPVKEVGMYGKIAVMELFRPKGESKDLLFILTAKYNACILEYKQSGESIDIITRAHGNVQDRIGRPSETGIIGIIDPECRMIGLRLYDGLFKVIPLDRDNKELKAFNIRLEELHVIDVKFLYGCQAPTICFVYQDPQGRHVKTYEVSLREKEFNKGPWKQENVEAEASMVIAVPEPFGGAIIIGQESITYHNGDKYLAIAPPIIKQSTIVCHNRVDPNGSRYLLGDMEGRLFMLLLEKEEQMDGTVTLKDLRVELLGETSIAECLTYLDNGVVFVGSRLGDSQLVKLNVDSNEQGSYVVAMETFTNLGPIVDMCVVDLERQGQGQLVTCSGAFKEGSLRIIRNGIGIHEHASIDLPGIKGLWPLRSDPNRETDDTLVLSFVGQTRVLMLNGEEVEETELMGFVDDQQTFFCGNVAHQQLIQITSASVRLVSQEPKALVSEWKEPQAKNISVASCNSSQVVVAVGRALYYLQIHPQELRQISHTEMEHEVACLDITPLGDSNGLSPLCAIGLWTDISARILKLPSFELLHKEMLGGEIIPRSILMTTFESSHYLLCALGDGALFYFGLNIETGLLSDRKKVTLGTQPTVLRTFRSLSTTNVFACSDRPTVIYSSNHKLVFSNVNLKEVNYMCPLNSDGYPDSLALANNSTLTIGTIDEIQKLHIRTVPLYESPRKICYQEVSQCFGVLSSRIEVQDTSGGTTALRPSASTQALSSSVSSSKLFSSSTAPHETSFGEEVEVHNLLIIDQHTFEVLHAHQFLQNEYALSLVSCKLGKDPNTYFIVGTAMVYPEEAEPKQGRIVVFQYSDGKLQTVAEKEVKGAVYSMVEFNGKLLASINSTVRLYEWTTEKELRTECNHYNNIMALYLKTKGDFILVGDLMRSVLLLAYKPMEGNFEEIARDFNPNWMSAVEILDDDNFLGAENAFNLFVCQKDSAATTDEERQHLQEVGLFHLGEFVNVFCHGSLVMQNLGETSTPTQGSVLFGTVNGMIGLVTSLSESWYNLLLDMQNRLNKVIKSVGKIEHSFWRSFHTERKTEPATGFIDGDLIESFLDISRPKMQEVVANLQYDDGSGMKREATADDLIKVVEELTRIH

T3 sequence (Q9UKS7 whole entry): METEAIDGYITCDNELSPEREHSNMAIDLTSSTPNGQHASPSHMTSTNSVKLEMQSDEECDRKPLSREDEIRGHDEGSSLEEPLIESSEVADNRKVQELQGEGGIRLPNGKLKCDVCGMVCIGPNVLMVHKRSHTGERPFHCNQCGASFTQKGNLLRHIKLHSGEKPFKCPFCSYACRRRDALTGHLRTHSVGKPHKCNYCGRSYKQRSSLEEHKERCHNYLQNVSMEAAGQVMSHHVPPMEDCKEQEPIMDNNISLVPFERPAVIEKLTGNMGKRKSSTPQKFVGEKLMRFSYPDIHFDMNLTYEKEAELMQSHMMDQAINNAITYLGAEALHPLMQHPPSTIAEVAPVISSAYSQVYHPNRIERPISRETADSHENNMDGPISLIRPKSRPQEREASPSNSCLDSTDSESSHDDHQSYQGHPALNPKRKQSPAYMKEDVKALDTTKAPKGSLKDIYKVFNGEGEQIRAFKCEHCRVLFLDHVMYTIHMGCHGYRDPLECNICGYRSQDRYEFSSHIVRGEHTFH
T3 sequence (Q96SW2 whole entry): as the sequence (Q96SW2 whole entry) above
T3 sequence (Q16531 whole entry partner): as the sequence (Q16531 whole entry partner) above
T6 sequence (Q96SW2 whole entry): as the sequence (Q96SW2 whole entry) above
T5 sequence (P48729 whole entry): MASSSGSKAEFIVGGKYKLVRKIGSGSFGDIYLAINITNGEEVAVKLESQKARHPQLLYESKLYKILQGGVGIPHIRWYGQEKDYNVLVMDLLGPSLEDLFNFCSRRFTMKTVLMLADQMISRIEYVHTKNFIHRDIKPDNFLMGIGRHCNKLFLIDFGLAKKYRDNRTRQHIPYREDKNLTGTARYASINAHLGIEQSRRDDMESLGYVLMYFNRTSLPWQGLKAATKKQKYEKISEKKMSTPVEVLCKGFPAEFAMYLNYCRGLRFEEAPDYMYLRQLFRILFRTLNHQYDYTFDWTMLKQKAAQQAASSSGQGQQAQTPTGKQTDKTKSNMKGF
T5 sequence (Q96SW2 whole entry): as the sequence (Q96SW2 whole entry) above
T5 sequence (Q16531 whole entry partner): as the sequence (Q16531 whole entry partner) above
T1 sequence (Q13422 whole entry): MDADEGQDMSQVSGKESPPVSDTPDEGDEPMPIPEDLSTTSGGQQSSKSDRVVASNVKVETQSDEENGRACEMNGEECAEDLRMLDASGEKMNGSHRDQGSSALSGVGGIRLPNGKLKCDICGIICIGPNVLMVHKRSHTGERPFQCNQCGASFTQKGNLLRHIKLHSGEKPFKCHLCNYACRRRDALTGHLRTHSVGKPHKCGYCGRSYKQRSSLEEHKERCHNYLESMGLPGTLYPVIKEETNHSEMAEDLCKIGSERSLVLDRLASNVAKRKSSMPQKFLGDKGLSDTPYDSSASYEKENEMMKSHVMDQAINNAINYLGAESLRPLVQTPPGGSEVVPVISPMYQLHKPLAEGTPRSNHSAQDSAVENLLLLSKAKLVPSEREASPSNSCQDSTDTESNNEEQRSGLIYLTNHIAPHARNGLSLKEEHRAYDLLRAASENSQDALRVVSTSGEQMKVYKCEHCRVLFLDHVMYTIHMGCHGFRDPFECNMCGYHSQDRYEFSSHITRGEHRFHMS
T1 sequence (Q96SW2 whole entry): as the sequence (Q96SW2 whole entry) above
T1 sequence (Q16531 whole entry partner): as the sequence (Q16531 whole entry partner) above
T4 sequence (P15170 whole entry): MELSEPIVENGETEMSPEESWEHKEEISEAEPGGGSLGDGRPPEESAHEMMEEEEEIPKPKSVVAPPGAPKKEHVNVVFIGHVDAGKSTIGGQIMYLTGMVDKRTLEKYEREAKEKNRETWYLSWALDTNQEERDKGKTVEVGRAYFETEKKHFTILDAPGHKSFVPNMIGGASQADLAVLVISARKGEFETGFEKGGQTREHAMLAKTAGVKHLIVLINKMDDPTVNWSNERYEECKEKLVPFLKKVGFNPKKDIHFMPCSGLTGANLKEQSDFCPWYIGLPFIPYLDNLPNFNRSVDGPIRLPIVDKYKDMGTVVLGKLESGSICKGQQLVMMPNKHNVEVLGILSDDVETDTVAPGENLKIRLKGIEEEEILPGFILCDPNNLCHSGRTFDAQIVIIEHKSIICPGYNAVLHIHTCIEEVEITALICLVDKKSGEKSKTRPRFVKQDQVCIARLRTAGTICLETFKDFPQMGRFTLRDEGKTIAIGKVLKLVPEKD
T4 sequence (Q96SW2 whole entry): as the sequence (Q96SW2 whole entry) above
T4 sequence (Q16531 whole entry partner): as the sequence (Q16531 whole entry partner) above

Cc1cc2c(C3=CCN(Cc4ccc5c(c4)C(=O)N(C4CCC(=O)NC4=O)C5=O)CC3)ncnc2s1 (stereo not shown) [GT-06655, 2-(2,6-dioxopiperidin-3-yl)-5-((4-(6-methylthieno[2,3-d]pyrimidin-4-yl)-3,6-dihydropyridin-1(2H)-yl)methyl)isoindoline-1,3-dione]
IKZF 1 substrate protein remaining % (IKZF1): A (0% ≤ substrate protein remaining % ≤ 80%) | Weel substrate protein remaining % (WEE1): A (0% ≤ substrate protein remaining % ≤ 80%) | IKZF2 substrate protein remaining % (IKZF2): A (0% ≤ substrate protein remaining % ≤ 80%) | GSPT1 substrate protein remaining % (GSPT1): A (0% ≤ substrate protein remaining % ≤ 80%) | CK1a substrate protein remaining % (CK1α): B (80%< substrate protein remaining %≤ 100%) | IC50 [1]: 500 to 1000 nM | IKZF3 substrate protein remaining % (IKZF3): A (0% ≤ substrate protein remaining % ≤ 80%)

Cc1sc2ncnc(C3=CCN(Cc4ccc5c(c4)C(=O)N(C4CCC(=O)NC4=O)C5=O)CC3)c2c1C (stereo not shown) [GT-06657, 5-((4-(5,6-dimethylthieno[2,3-d]pyrimidin-4-yl)-3,6-dihydropyridin-1 (2H)-yl)methyl)-2-(2,6-dioxopiperidin-3-yl)isoindoline-1,3-dione]
IKZF 1 substrate protein remaining % (IKZF1): A (0% ≤ substrate protein remaining % ≤ 80%) | Weel substrate protein remaining % (WEE1): A (0% ≤ substrate protein remaining % ≤ 80%) | IKZF2 substrate protein remaining % (IKZF2): B (80%< substrate protein remaining %≤ 100%) | GSPT1 substrate protein remaining % (GSPT1): A (0% ≤ substrate protein remaining % ≤ 80%) | CK1a substrate protein remaining % (CK1α): B (80%< substrate protein remaining %≤ 100%) | IC50 [1]: 1000 to 1500 nM | IKZF3 substrate protein remaining % (IKZF3): B (80%< substrate protein remaining %≤ 100%)

O=C1CCC(N2C(=O)c3ccc(CN4CC=C(c5ncnc6scc(-c7ccccc7)c56)CC4)cc3C2=O)C(=O)N1 (stereo not shown) [GT-06676, 2-(2,6-dioxopiperidin-3-yl)-5-((4-(5-phenylthieno[2,3-d]pyrimidin-4-yl)-3,6-dihydropyridin-1(2H)-yl)methyl)isoindoline-1,3-dione]
IKZF 1 substrate protein remaining % (IKZF1): B (80%< substrate protein remaining %≤ 100%) | Weel substrate protein remaining % (WEE1): A (0% ≤ substrate protein remaining % ≤ 80%) | IKZF2 substrate protein remaining % (IKZF2): B (80%< substrate protein remaining %≤ 100%) | GSPT1 substrate protein remaining % (GSPT1): B (80%< substrate protein remaining %≤ 100%) | CK1a substrate protein remaining % (CK1α): A (0% ≤ substrate protein remaining % ≤ 80%) | IC50 [1]: 1000 to 1500 nM | IKZF3 substrate protein remaining % (IKZF3): B (80%< substrate protein remaining %≤ 100%)

Cc1nc(C2=CCN(Cc3ccc4c(c3)C(=O)N(C3CCC(=O)NC3=O)C4=O)CC2)c2c(-c3ccccc3)csc2n1 (stereo not shown) [GT-06677, 2-(2,6-dioxopiperidin-3-yl)-5-((4-(2-methyl-5-phenylthieno[2,3-d]pyrimidin-4-yl)-3,6-dihydropyridin-1(2H)-yl)methyl)isoindoline-1,3-dione]
IKZF 1 substrate protein remaining % (IKZF1): B (80%< substrate protein remaining %≤ 100%) | Weel substrate protein remaining % (WEE1): B (80%< substrate protein remaining %≤ 100%) | IKZF2 substrate protein remaining % (IKZF2): B (80%< substrate protein remaining %≤ 100%) | GSPT1 substrate protein remaining % (GSPT1): B (80%< substrate protein remaining %≤ 100%) | CK1a substrate protein remaining % (CK1α): A (0% ≤ substrate protein remaining % ≤ 80%) | IC50 [1]: 500 to 1000 nM | IKZF3 substrate protein remaining % (IKZF3): B (80%< substrate protein remaining %≤ 100%)

Reference: patent publication EP4745137A1 (Gluetacs Therapeutics (Shanghai) Co., Ltd., priority 2023, dated 2025)
